The assay addresses T1, PIP4K2C (Homo sapiens, UniProt Q8TBX8).
T1 sequence (Q8TBX8 1-421): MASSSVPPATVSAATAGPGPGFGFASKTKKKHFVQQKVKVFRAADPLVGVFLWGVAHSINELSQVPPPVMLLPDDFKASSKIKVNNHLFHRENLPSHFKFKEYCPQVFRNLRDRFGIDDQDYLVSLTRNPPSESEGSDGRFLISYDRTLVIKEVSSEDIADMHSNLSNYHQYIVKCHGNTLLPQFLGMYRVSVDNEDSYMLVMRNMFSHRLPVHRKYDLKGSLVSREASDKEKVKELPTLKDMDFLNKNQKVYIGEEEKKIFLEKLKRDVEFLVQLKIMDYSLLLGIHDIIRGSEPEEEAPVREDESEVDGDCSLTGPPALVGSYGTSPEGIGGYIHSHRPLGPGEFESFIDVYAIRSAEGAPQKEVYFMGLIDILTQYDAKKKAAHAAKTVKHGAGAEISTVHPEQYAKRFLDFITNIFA
Nature of the assay: Enzyme Binding Assay (KINOMEscan): active site-directed competition binding to an immobilized ligand. On the set-up: purchased Eurofins DiscoverX, San Diego, CA 87-0007-1094. To be noted: 11-point dose response, duplicate, top concentration 5 micromolar; read-out: Pip4k2c Kd: IC50. In outline: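 Active site-directed competition binding against an immobilized ligand. 11-point dose-response in duplicate, top concentration 5 micromolar; IC50 from a Hill equation fitted by the Levenberg-Marquardt algorithm.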
The term IC50 denotes the concentration needed to halve the response being measured. Turning to `CNC(=O)[C@H]1CC[C@@H](Nc2ncc(Cl)c(-c3cnn(C4CC4)c3)n2)CC1` [Compound 107, cis-(1s,4s)-4-((5-chloro-4-(1-cyclopropyl-1H-pyrazol-4-yl)pyrimidin-2-yl)amino)-N-methylcyclohexane-1-carboxamide], the IC50 lay in the range of 0.5 to 1 µM.

As to `CC(=O)N1CCC(Nc2ncc(F)c(-c3cccc(N4CCCCC4=O)c3)n2)CC1` [Compound 221, 1-(3-(2-((1-acetylpiperidin-4-yl)amino)-5-fluoropyrimidin-4-yl)phenyl)piperidin-2-one], the IC50 is less than 0.5 µM. For `CC(=O)N[C@H]1CC[C@H](Nc2ncc(F)c(-c3cccc(-n4ccccc4=O)n3)n2)CC1` [Compound 626, trans-N-(4-((5-fluoro-4-(2-oxo-2H-[1,2′-bipyridin]-6′-yl)pyrimidin-2-yl)amino)cyclohexyl)acetamide] the value was less than 0.5 µM; for `CNC(=O)[C@H]1C[C@H](Nc2ncc(Cl)c(-c3cnn(-c4ccc[nH]c4=O)c3)n2)C1` [Compound 166, trans-(1r,3r)-3-((5-chloro-4-(1-(2-oxo-1,2-dihydropyridin-3-yl)-1H-pyrazol-4-yl)pyrimidin-2-yl)amino)-N-methylcyclobutane-1-carboxamide], less than 0.5 µM. The value for `NC(=O)[C@H]1CC[C@H](Nc2ncc(Cl)c(-c3cccc(-c4ccccc4)c3)n2)CC1` [Compound 19, trans-4-((4-([1,1′-biphenyl]-3-yl)-5-chloropyrimidin-2-yl)amino)cyclohexane-1-carboxamide] was less than 0.5 µM; that for `CC(=O)N[C@H]1CC[C@H](Nc2ncc(F)c(N3CCC[C@@H](C(=O)NC4CC4)C3)n2)CC1` [Compound 197, trans-(R)-1-(2-((4-acetamidocyclohexyl)amino)-5-fluoropyrimidin-4-yl)-N-cyclopropylpiperidine-3-carboxamide] was 1 to 5 µM. Consider `CC(=O)N1CCC(Nc2ncc(Cl)c(-c3ccc(F)cc3)n2)CC1` [Compound 27, 1-(4-((5-chloro-4-(4-fluorophenyl)pyrimidin-2-yl)amino)piperidin-1-yl)ethan-1-one], for which the IC50 fell in the range of 0.5 to 1 µM. The value for `NC(=O)[C@H]1CC[C@H](Nc2ncc(F)c(-c3cccc(N4CCCC4=O)c3)n2)CC1` [Compound 249, trans-4-((5-fluoro-4-(3-(2-oxopyrrolidin-1-yl)phenyl)pyrimidin-2-yl)amino)cyclohexane-1-carboxamide] was less than 0.5 µM; that for `CC(=O)N1CCC(Nc2ncc(F)c(-c3cccc(C4CCCN(C(C)=O)C4)c3)n2)CC1` (stereo not drawn) [Compound 179, 1-(4-((4-(3-(1-acetylpiperidin-3-yl)phenyl)-5-fluoropyrimidin-2-yl)amino)piperidin-1-yl)ethan-1-one] was less than 0.5 µM. The value for `Cc1ccc(=O)n(-c2cccc(-c3nc(N[C@H]4CC[C@H](C(N)=O)CC4)ncc3F)c2)c1` [Compound 247, trans-4-((5-fluoro-4-(3-(5-methyl-2-oxopyridin-1 (2H)-yl)phenyl)pyrimidin-2-yl)amino)cyclohexane-1-carboxamide] was less than 0.5 µM. The value for `NC(=O)[C@H]1CC[C@H](Nc2ncc(F)c(-c3ccnc(N4CCCC4=O)c3)n2)CC1` [Compound 262, trans-(1r,4r)-4-((5-fluoro-4-(2-(2-oxopyrrolidin-1-yl)pyridin-4-yl)pyrimidin-2-yl)amino)cyclohexane-1-carboxamide] was less than 0.5 µM. Turning to `CC(=O)N1CCC(Nc2ncc(F)c(-c3cccc(C4(O)COC4)c3)n2)CC1` [Compound 171, 1-(4-((5-fluoro-4-(3-(3-hydroxyoxetan-3-yl)phenyl)pyrimidin-2-yl)amino)piperidin-1-yl)ethan-1-one], the IC50 was less than 0.5 µM. The value for `NC(=O)[C@H]1CC[C@H](Nc2ncc(F)c(-c3cccc(-c4cc[nH]c(=O)c4)c3)n2)CC1` [Compound 195, trans-4-((5-fluoro-4-(3-(2-oxo-1,2-dihydropyridin-4-yl)phenyl)pyrimidin-2-yl)amino)cyclohexane-1-carboxamide] was less than 0.5 µM. Consider `CC(=O)N[C@H]1CC[C@H](Nc2ncc(F)c(-c3cccc(N4CCCCC4=O)n3)n2)CC1` [Compound 625, N-(trans-4-((5-fluoro-4-(6-(2-oxopiperidin-1-yl)pyridin-2-yl)pyrimidin-2-yl)amino)cyclohexyl) acetamide], for which the IC50 is less than 0.5 µM. For the compound `CN1CCC(CCC(=O)N2CCC(Nc3ncc(Cl)c(-c4cccc(-c5ccccc5)c4)n3)CC2)CC1` [Compound 10, 1-(4-((4-([1,1′-biphenyl]-3-yl)-5-chloropyrimidin-2-yl)amino)piperidin-1-yl)-3-(1-methylpiperidin-4-yl)propan-1-one], the IC50 is less than 0.5 µM. For `CC(=O)N1CCC(Nc2ncc(F)c(N3CCC[C@H](C(=O)N4CC[C@@H](O)C4)C3)n2)CC1` [Compound 216, 1-(4-((5-fluoro-4-((S)-3-((R)-3-hydroxypyrrolidine-1-carbonyl)piperidin-1-yl)pyrimidin-2-yl)amino)piperidin-1-yl)ethan-1-one] the value was 0.5 to 1 µM. As for `CC(=O)N1CCC[C@H](Nc2ncc(Cl)c(-c3cccc(-c4ccc(F)cc4)c3)n2)C1` [Compound 128, (S)-1-(3-((5-chloro-4-(4′-fluoro-[1,1′-biphenyl]-3-yl)pyrimidin-2-yl)amino)piperidin-1-yl)ethan-1-one], the IC50 is less than 0.5 µM. For `CC(=O)N[C@H]1CC[C@H](Nc2ncc(F)c(-c3cccc(N4CCCC4=O)c3)n2)CC1` [Compound 248, trans-N-(4-((5-fluoro-4-(3-(2-oxopyrrolidin-1-yl)phenyl)pyrimidin-2-yl)amino)cyclohexyl)acetamide] the value was less than 0.5 µM; for `CC(=O)N[C@H]1CC[C@H](Nc2ncc(Cl)c(C3CCCN(C(=O)c4ccc(F)cc4)C3)n2)CC1` (stereo partly drawn) [Compound 124, trans-N-(4-((5-chloro-4-(1-(4-fluorobenzoyl)piperidin-3-yl)pyrimidin-2-yl)amino)cyclohexyl)acetamide], less than 0.5 µM. The value for `CC(=O)N1CCC(CC(=O)N2CCC(Nc3ncc(Cl)c(-c4cccc(-c5ccccc5)c4)n3)CC2)CC1` [Compound 6, 1-(4-((4-([1,1′-biphenyl]-3-yl)-5-chloropyrimidin-2-yl)amino)piperidin-1-yl)-2-(1-acetylpiperidin-4-yl)ethan-1-one] was less than 0.5 µM.

Take `CC(=O)N1CCC(Nc2ncc(Cl)c(-c3cc(C4CC4)[nH]n3)n2)CC1` [Compound 132, 1-(4-((5-chloro-4-(5-cyclopropyl-1H-pyrazol-3-yl)pyrimidin-2-yl)amino)piperidin-1-yl)ethan-1-one]: the IC50 was less than 0.5 µM. For `CNC(=O)[C@H]1C[C@H](Nc2ncc(Cl)c(-c3cccc(-c4ccc[nH]c4=O)c3)n2)C1` [Compound 139, trans-(1r,3r)-3-((5-chloro-4-(3-(2-oxo-1,2-dihydropyridin-3-yl)phenyl)pyrimidin-2-yl)amino)-N-methylcyclobutane-1-carboxamide] the value was less than 0.5 µM; for `NC(=O)[C@H]1CC[C@H](Nc2ncc(F)c(-c3cccc(-c4ccccc4)c3)n2)CC1` [Compound 610, trans-4-((4-([1,1′-biphenyl]-3-yl)-5-fluoropyrimidin-2-yl)amino)cyclohexane-1-carboxamide], less than 0.5 µM; for `CC(=O)N[C@H]1CC[C@H](Nc2ncc(F)c(-c3ccnc(-n4ccccc4=O)c3)n2)CC1` [Compound 265, trans-N-(4-((5-fluoro-4-(2-oxo-2H-[1,2′-bipyridin]-4′-yl)pyrimidin-2-yl)amino)cyclohexyl)acetamide], less than 0.5 µM. The value for `CC(=O)N[C@H]1CC[C@H](Nc2ncc(F)c(-c3cccc(C4COC4)c3)n2)CC1` [Compound 175, N-(trans-4-((5-fluoro-4-(3-(oxetan-3-yl)phenyl)pyrimidin-2-yl)amino)cyclohexyl)acetamide] was less than 0.5 µM; that for `NC(=O)[C@@H]1CCC[C@H](Nc2ncc(F)c(-c3cccc(N4CCOCC4=O)n3)n2)C1` (relative stereo) [Compound 627, cis-3-((5-fluoro-4-(6-(3-oxomorpholino)pyridin-2-yl)pyrimidin-2-yl)amino)cyclohexane-1-carboxamide] was less than 0.5 µM; that for `NC(=O)[C@H]1CC[C@H](Nc2ncc(F)c(-c3cccc(N4CCOCC4=O)n3)n2)CC1` [Compound 271, trans-4-((5-fluoro-4-(6-(3-oxomorpholino)pyridin-2-yl)pyrimidin-2-yl)amino)cyclohexane-1-carboxamide] was less than 0.5 µM. The value for `CC(=O)N[C@H]1CC[C@H](Nc2ncc(F)c(-c3ccnc(N4CCCC4=O)c3)n2)CC1` [Compound 261, trans-N-(4-((5-fluoro-4-(2-(2-oxopyrrolidin-1-yl)pyridin-4-yl)pyrimidin-2-yl)amino)cyclohexyl)acetamide] was less than 0.5 µM; that for `CC(=O)N[C@H]1CC[C@H](Nc2ncc(F)c(-c3cccc(N4CCOCC4=O)n3)n2)CC1` [Compound 270, trans-N-(4-((5-fluoro-4-(6-(3-oxomorpholino)pyridin-2-yl)pyrimidin-2-yl)amino)cyclohexyl)acetamide] was less than 0.5 µM.

On to `NC(=O)[C@H]1CC[C@H](Nc2ncc(F)c(-c3cccc(C4(O)CCC4)n3)n2)CC1` [Compound 620, trans-4-((5-fluoro-4-(6-(1-hydroxycyclobutyl)pyridin-2-yl)pyrimidin-2-yl)amino)cyclohexane-1-carboxamide], for which the IC50 was less than 0.5 µM.

Values taken from patent US20260355196A1, “INHIBITORS AND DEGRADERS OF PIP4K PROTEIN” (Larkspur Biosciences, Inc., priority 2023, published 2026).
